Results published in patent US20210290624A1, “METHODS OF TREATING CANCERS CHARACTERIZED BY A HIGH EXPRESSION LEVEL OF SPINDLE AND KINETOCHORE ASSOCIATED COMPLEX SUBUNIT 3 (SKA3) GENE” (UNIVERSITY HEALTH NETWORK, priority 2018, published 2021).

Tested on: breast cancer cell lines
Assay: sulforhodamine B (SRB) drug sensitivity assay in breast cancer cell line panel
Assay type: cell-based
Settings: panel of 52 breast cancer cell lines, 5 days of treatment, FIG. 1
Description: A breast cancer cell line panel, previously described (Marcotte et al., Cell, 164(1-2), 2016293-309), was assembled for in vitro drug sensitivity profiling, and mated with available gene expression data. The RNA-seq reads were aligned to the Ensembl Genome Reference Consortium release GRCh38 using Kallisto pipeline (Bray et al., Nature Biotechnology, 201634(5), 525-527). Expression values were computed as log2(TPM+0.001), where TPM represents the number of transcripts per million mapped reads units which control for sequence length and sequencing depth. The status of SKA3 expression (high vs low expression) can be determined from a reference population such as the breast cancer TCGA cohort (see FIG. 6).
Response of breast cancer cell lines to compound CFI-402257 (a TTK inhibitor, see the structure below) was evaluated using sulforhodamine B (SRB) assays. The compound was synthesized as previously described (See Liu et al., ACS Medicinal Chemistry Letters, 20167(7), 671-675).
Cells were seeded in 96-well plates and treated with serial drug dilutions. After 5 days of treatment, cells were fixed, stained with SRB, solubilized, and absorbance quantified on a spectrophotometer. For all drug response assays, cell viabilities are reported as the proportion of growth in drug relative to DMSO treated conditions. […]

Cc1cc(-c2cnn3c(NC[C@H]4C[C@@](C)(O)C4)cc(Oc4cccnc4)nc23)ccc1C(=O)NC1CC1 [CFI-402257]
in vitro sensitivity (area above the drug dose-response curve, AAC): Differential in vitro sensitivity
